Results on 20 substances are retold here after patent US11214803B2, “Modulators of YAP1 expression” (Ionis Pharmaceuticals, Inc., priority 2019, dated 2022).

This series relates to Yap1 mRNA. Kind of series: Antisense inhibition of human Yap1 in A-431 cells by cEt gapmers, single dose (Example 3, RTS36584). The class given is cell-based. In a few lines: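 A-431 cells were treated by free uptake with 2,000 nM modified oligonucleotide (3-10-3 cEt gapmers, full phosphorothioate, 5-methylcytosines) for about 48 hours. Yap1 mRNA was quantified by real-time RT-PCR, normalized to RiboGreen total RNA, and expressed as % of untreated control; asterisked values mark oligonucleotides targeting the amplicon region.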

Setting [1] is: Table 8, A-431 cells, 5,000 cells per well, free uptake, 2,000 nM, approximately 48 hours, RTS36584, normalized to RIBOGREEN, Yap1 mRNA relative to untreated control cells.
The mark [2] stands for this setting: Table 9, A-431 cells, 5,000 cells per well, free uptake, 2,000 nM, approximately 48 hours, RTS36584, normalized to RIBOGREEN, Yap1 mRNA relative to untreated control cells.
Where [3] appears, read: Table 34, Yap1 mRNA as percent of untreated control, 3-10-3 cEt gapmers targeting SEQ ID NO: 1 and 2, single dose.
[4] abbreviates: Table 10, A-431 cells, 5,000 cells per well, free uptake, 2,000 nM oligonucleotide, approx. 48 hours, primer probe set RTS36584, Yap1 mRNA normalized to RIBOGREEN, percent of untreated control.
Where [5] appears, read: Table 29, Yap1 mRNA as percent of untreated control, 3-10-3 cEt gapmers targeting SEQ ID NO.: 1, and 2.
Setting [6] is: Table 13, A-431 cells, 5,000 cells per well, free uptake, 2,000 nM modified oligonucleotide, approx. 48 hours, RTS36584, normalized to RIBOGREEN, Yap1 mRNA relative to untreated control cells.
Where [7] appears, read: Table 35, Yap1 mRNA as percent of untreated control, 3-10-3 cEt gapmers targeting SEQ ID NO: 1 and 2, single dose.

Strand notation (5' to 3'): a small letter for the sugar, then the base; units joined by * are phosphorothioate-linked, units joined directly phosphodiester-linked; [ ] holds rarer units or linkages, { } end groups; capitals alone tell only the bases. k = constrained ethyl (cEt); [5mC] = 5-methylcytosine; d = 2'-deoxy (DNA)

As to “958393 (antisense kG*k[5mC]*k[5mC]*dT*dA*dT*dG*dA*dG*dT*d[5mC]*dA*dA*k[5mC]*k[5mC]*kT) [Compound 958393]”, under setting [1], the “YAP1 (% UTC)” value is listed as 89 % UTC.
As for “958741 (antisense kG*kT*kT*dA*d[5mC]*dT*dG*d[5mC]*dA*dA*d[5mC]*dT*dG*k[5mC]*k[5mC]*k[5mC]) [Compound 958741]”, under setting [2], the “YAP1 (% UTC)” value was 14 % UTC.
As for “958421 (antisense k[5mC]*kT*k[5mC]*d[5mC]*dG*dT*dG*dG*dT*dG*dA*dT*d[5mC]*k[5mC]*k[5mC]*kA) [Compound 958421]”, the “YAP1 (% UTC)” value under setting [1] came to 13 % UTC.
As for “1076404 (antisense kT*kA*kT*dT*dT*dA*dA*dG*dA*d[5mC]*d[5mC]*dT*dG*kG*kT*kG) [compound 1076404]”, the “YAP1 (% UTC)” value under setting [3] turned out to be 13 % UTC.
“1074292 (antisense k[5mC]*kT*kG*dT*dT*dT*d[5mC]*dA*d[5mC]*dT*dG*dG*dA*kG*k[5mC]*kA) [compound 1074292]”: the “YAP1 (% UTC)” value under setting [3] amounted to 10 % UTC.
On to “1075820 (kT*k[5mC]*kT*dG*dA*dA*d[5mC]*dG*dG*dG*d[5mC]*dT*dG*kT*kT*kG; antisense) [compound 1075820]”, for which the “YAP1 (% UTC)” value (Table 26, Yap1 mRNA by 3-10-3 cEt gapmers targeting SEQ ID NO.: 1, and 2, percent of untreated control) was determined as 27 % UTC.
For “958771 (antisense k[5mC]*kT*kA*d[5mC]*dA*dG*dA*d[5mC]*dG*dA*dA*dT*dT*k[5mC]*k[5mC]*kA) [Compound 958771]”, under setting [2], the “YAP1 (% UTC)” value is recorded as 18 % UTC.
Consider “958562 (k[5mC]*kA*kT*dT*dG*dA*dA*dA*dG*dA*d[5mC]*d[5mC]*d[5mC]*kT*kT*kA; antisense) [Compound 958562]”, for which, under setting [4], the “YAP1 (% UTC)” value turned out to be 6 % UTC.
Consider “1074349 (antisense k[5mC]*kT*kG*dT*dA*d[5mC]*dT*d[5mC]*dT*d[5mC]*dA*dT*d[5mC]*kT*k[5mC]*kG) [compound 1074349]”, for which the “YAP1 (% UTC)” value (Table 27, Yap1 mRNA by 3-10-3 cEt gapmers targeting SEQ ID NO.: 1, and 2, percent of untreated control) was determined as 30 % UTC.
Turning to “1074735 (kG*kA*kT*d[5mC]*dA*dA*dA*dG*d[5mC]*dA*d[5mC]*dT*dG*kT*kG*k[5mC]; antisense) [compound 1074735]”, under setting [5], the “YAP1 (% UTC)” value worked out at 117 % UTC.
As to “958522 (kA*kA*kT*dT*dA*dG*dT*d[5mC]*d[5mC]*dA*dA*dG*dG*kG*kA*kG; antisense) [Compound 958522]”, the “YAP1 (% UTC)” value under setting [4] was found to be 32 % UTC.
“958789 (antisense kT*kA*k[5mC]*dT*dA*dT*dA*dT*dA*dA*dT*dA*d[5mC]*k[5mC]*k[5mC]*kT) [Compound 958789]”: under “Table 12, A-431 cells, 5,000 cells per well, free uptake, 2,000 nM modified oligonucleotide, approx. 48 hours, RTS36584, normalized to RIBOGREEN, Yap1 mRNA relative to untreated control cells”, the “YAP1 (% UTC)” value is given as 17 % UTC.
“958646 (kT*kA*kT*dT*dA*dT*dA*dT*dG*dG*d[5mC]*dT*dA*kA*kG*k[5mC]; antisense) [Compound 958646]”: the “YAP1 (% UTC)” value under setting [2] was 26 % UTC.
For the substance “958530 (kG*kA*kG*d[5mC]*dA*dA*dG*dT*d[5mC]*dT*dT*dG*dT*kA*kA*kG; antisense) [Compound 958530]”, the “YAP1 (% UTC)” value under setting [6] is listed as 20 % UTC.
Take “1075214 (kA*kA*k[5mC]*dA*dA*dT*dA*dA*dA*dG*dG*dG*dT*k[5mC]*k[5mC]*kT; antisense) [compound 1075214]”: the “YAP1 (% UTC)” value (Table 28, Yap1 mRNA as percent of untreated control, 3-10-3 cEt gapmers targeting SEQ ID NO.: 1, and 2) worked out at 45 % UTC.
Turning to “1074543 (k[5mC]*k[5mC]*kT*dA*dG*dG*d[5mC]*dA*d[5mC]*dT*dA*dT*d[5mC]*k[5mC]*kA*k[5mC]; antisense) [compound 1074543]”, the “YAP1 (% UTC)” value under setting [5] is recorded as 57 % UTC.
Consider “1074325 (antisense k[5mC]*kG*k[5mC]*dA*dG*dG*dG*d[5mC]*dT*dA*dA*d[5mC]*dT*k[5mC]*k[5mC]*kT) [compound 1074325]”, for which the “YAP1 (% UTC)” value under setting [7] is 42 % UTC.
For the substance “1075156 (kA*kT*kT*dA*dT*dA*dT*dG*dA*d[5mC]*dT*d[5mC]*dT*kG*k[5mC]*kT; antisense) [compound 1075156]”, the “YAP1 (% UTC)” value under setting [3] amounted to 22 % UTC.
As for “958755 (antisense kT*kA*kA*d[5mC]*dA*dT*dA*dA*dG*dA*d[5mC]*dA*d[5mC]*kG*kG*kA) [Compound 958755]”, the “YAP1 (% UTC)” value under setting [6] is 12 % UTC.
Regarding “1074773 (k[5mC]*kA*kG*dT*dT*dA*dA*dA*dA*dT*d[5mC]*dT*dT*kA*kT*k[5mC]; antisense) [compound 1074773]”, the “YAP1 (% UTC)” value under setting [7] came out at 94 % UTC.
